According to patent publication US20080152640A1, “Means and Methods For Treating a Disease Which is Associated With an Excess Transport of Hyaluronan Across a Lipid Bilayer” (priority 2003, published 2008):
pIC50: −log10 of the molar value. Where two headings read alike, the source gives them in different places.

Legend:
MRP transporters [1] = biological target: MRP transporters (Homo sapiens, UniProt P33527); conditions: read-out: IC50 for MRP transporter; cited from earlier work
MRP transporters [2] = test system: T1, MRP transporters; conditions: human erythrocytes; cited from earlier work
T1 construct: other: human erythrocytes

human fibroblasts = experiment: Hyaluronan production of human fibroblasts (ELISA of culture medium); assay type: cell-based; conditions: Fibroblast; human fibroblasts, culture medium; read-out: HA production (IC50)
MRP4 = biological target: T2, MRP4 (Homo sapiens, UniProt O15439); conditions: cited from earlier work
T2 sequence (O15439 1-1325): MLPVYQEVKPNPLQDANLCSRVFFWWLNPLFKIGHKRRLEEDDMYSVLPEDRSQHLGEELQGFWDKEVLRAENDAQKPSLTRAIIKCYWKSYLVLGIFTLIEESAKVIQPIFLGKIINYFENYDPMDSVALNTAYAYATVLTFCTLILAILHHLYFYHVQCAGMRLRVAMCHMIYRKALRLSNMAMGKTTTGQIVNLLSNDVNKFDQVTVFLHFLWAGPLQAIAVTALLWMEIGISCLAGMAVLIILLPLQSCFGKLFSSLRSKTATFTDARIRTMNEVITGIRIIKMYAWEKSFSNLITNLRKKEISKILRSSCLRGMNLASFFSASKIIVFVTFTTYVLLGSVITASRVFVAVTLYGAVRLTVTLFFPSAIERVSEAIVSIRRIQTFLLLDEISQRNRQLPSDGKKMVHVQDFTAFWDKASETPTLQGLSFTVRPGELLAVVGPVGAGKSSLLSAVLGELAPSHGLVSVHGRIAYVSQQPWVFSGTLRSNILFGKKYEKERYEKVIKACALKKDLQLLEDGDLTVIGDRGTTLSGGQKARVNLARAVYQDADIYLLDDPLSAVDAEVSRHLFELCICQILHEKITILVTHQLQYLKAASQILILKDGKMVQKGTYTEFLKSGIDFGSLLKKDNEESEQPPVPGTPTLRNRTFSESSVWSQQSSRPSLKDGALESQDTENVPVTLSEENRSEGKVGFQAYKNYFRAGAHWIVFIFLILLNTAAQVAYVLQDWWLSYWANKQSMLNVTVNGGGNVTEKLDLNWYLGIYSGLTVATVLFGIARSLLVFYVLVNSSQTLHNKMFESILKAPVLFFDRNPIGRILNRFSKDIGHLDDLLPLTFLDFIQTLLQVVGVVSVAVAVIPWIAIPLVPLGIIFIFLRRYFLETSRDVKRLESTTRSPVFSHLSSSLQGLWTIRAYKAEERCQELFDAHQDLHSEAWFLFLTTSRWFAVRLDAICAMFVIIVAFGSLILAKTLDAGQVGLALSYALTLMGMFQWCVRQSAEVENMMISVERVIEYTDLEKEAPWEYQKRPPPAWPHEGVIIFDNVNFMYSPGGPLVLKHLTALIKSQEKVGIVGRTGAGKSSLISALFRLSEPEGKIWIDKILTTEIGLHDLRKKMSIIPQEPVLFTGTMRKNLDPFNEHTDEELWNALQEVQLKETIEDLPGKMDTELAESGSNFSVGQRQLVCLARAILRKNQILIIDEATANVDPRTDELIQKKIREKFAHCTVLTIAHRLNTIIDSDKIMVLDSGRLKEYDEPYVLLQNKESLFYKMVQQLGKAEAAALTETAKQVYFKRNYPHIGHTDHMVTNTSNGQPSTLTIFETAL

hyaluronan synthase = conditions: read-out: HA synthase activity (IC50); membranes of human fibroblasts
hyaluronan transport = experiment: Inhibition of hyaluronan transport (export) from human fibroblasts, discussion of Example 9; conditions: human fibroblasts
Experimental: Cells from five culture flasks (180 cm2 growth area) were washed with cold phosphate buffered saline (PBS), harvested with the aid of a rubber policeman, sedimented at 1500 g for 5 min and suspended in 30 ml of ice-cold PBS. The cells were transferred into a Parr-cell disruption bomb, exposed to a nitrogen pressure of 900 psi for 15 min and disrupted by nitrogen cavitation [18] and the particulate fraction was obtained by centrifugation at 40000 g for 20 min. […] Hyaluronan synthesis was stopped by adding a solution of 10% sodium dodecylsuifate (SDS) to a final concentration of 1%. The mixtures were applied to descending paper chromatography that was developed with ethanol/aq. 1 M ammonium acetate pH 5.5 (13:7) as solvent. After 18 h the radioactivity of [14C]hyaluronan at the origin was determined.
Trypsinised fibroblasts were suspended in Dulbecco's medium at 10^5 cells/ml and 100 μl aliquots were transferred to a 96 well microtiter plate. The first row received 200 μl of the suspension and 20 μl of the multidrug resistance inhibitors dissolved in DMSO at concentrations of 4 mM. A serial dilution to the inhibitors was established by transfer of 100 μl aliquots from the first row to the following rows. All experiments were performed in duplicates. […] The cells were incubated for 2 days at 37° C. and aliquots (5 and 20 μl) of the culture medium were used for measurement of the hyaluronan concentration in the cell culture medium by an ELISA [19]. […] The mixtures were transferred to the hyaluronan-coated test plate and incubated for 1 hour at 37° C. The microtiter plate was washed three times with buffer A and incubated with 100 μl/well of a solution of streptavidin-horseraddish-peroxidase (Amersham) at a dilution of 1:100 in phosphate buffered saline, 0.1% Tween-20 for 30 min at room temperature. The plate was washed five times with buffer A and the colour was developed by incubation with a 100 μl/well of a solution of 5 mg o-phenylenediamine and 5 μl 30% H2O2 in 10 ml of 0.1 M citrate-phosphate buffer pH 5.3 for 25 min at room temperature. The adsorption was read at 490 nm. The concentrations in the samples were calculated from a logarithmic regression curve of the hyaluronan standard solutions.
Three parameters were measured: 1. The amount of hyaluronan produced during growth into the culture supernatant. 2. The hyaluronan synthase activity in particulate membrane fractions to eliminate the possibility that inhibition of hyaluronan production in cell culture could be caused indirectly by cellular mediators. 3. The effect on cell proliferation, because hyaluronan synthesis is also required for detachment during mitosis and growth of the human HT1080 cell line [14].

MRP5 = MRP5 (Homo sapiens, UniProt O15440); conditions: cited from earlier work
MRP1 = MRP1 (Homo sapiens, UniProt P33527); conditions: read-out: published inhibitory concentrations IC50 or Ki, MRP1; cited from earlier work
MRP1, sequence (P33527 whole entry): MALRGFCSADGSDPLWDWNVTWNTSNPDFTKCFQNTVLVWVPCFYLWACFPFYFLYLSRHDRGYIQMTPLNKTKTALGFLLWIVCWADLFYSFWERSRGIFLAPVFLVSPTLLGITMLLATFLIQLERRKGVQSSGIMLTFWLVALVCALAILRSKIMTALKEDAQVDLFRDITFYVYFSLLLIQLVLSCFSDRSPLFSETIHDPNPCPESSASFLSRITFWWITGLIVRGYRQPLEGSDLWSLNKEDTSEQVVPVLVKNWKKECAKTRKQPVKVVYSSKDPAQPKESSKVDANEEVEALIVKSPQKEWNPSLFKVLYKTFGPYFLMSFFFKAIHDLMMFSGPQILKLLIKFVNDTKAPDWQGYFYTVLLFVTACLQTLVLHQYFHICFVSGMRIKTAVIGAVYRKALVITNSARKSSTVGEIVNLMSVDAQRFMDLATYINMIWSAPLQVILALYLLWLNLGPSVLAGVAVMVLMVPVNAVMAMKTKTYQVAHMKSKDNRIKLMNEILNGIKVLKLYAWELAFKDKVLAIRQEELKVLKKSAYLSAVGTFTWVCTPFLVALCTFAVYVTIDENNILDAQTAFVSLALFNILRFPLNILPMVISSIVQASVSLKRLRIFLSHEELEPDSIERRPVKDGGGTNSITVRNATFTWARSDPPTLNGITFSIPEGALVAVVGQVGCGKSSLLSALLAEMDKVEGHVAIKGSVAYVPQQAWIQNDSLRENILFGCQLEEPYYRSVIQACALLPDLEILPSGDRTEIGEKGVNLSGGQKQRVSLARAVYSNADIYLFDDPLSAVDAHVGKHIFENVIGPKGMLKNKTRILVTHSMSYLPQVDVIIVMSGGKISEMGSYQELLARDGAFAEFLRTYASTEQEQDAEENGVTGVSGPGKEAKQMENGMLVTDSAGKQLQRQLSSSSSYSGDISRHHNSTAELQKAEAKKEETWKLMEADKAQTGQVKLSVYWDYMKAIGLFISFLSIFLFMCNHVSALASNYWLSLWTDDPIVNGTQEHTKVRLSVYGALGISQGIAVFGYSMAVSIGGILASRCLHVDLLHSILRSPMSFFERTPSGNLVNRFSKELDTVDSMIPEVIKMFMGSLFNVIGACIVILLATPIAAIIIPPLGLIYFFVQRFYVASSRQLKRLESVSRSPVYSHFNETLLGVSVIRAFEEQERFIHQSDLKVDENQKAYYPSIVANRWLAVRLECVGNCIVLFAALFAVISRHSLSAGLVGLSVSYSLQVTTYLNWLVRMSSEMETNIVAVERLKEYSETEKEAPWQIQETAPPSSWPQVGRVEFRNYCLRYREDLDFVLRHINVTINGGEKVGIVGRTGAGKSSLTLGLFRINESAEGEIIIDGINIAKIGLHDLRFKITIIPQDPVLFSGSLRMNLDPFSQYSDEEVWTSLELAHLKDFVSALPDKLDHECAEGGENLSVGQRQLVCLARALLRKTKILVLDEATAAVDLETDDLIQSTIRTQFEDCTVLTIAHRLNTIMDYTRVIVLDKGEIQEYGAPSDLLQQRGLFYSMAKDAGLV

MRP5, sequence (O15440 whole entry): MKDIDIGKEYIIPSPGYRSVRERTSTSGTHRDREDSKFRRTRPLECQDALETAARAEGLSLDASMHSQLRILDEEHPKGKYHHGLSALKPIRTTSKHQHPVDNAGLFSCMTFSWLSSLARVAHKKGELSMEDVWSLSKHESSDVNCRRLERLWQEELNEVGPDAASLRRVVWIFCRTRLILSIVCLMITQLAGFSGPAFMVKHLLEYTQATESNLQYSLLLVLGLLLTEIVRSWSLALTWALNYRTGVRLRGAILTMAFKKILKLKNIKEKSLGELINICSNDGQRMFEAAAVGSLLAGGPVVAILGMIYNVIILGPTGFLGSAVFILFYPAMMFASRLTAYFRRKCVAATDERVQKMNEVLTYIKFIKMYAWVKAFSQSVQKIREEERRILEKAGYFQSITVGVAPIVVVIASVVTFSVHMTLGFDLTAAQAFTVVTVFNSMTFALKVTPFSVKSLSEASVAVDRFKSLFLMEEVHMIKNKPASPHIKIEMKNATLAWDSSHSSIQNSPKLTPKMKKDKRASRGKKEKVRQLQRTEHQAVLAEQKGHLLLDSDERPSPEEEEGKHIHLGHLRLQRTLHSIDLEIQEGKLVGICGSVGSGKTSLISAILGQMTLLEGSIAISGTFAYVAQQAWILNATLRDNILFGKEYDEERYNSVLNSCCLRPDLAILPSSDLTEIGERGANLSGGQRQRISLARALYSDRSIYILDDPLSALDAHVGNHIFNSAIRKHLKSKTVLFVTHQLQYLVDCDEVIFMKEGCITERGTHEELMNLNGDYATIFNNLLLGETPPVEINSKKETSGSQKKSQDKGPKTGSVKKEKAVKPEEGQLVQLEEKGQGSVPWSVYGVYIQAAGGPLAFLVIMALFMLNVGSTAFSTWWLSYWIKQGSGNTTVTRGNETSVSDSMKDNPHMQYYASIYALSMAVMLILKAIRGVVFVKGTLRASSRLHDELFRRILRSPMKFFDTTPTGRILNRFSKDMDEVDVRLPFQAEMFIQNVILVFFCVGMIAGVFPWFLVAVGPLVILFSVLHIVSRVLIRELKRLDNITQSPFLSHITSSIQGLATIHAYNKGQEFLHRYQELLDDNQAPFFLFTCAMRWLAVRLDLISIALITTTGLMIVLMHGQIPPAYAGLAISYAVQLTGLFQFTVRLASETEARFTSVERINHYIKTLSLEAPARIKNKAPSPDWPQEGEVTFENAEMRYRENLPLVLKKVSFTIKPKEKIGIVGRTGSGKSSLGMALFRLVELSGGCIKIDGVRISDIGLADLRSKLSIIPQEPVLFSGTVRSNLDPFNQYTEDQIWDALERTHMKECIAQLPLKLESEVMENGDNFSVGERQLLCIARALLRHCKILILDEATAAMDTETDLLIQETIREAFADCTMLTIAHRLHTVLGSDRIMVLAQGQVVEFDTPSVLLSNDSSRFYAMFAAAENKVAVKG
MRP transporters (Homo sapiens, UniProt P33527), sequence (P33527 whole entry): as the sequence (P33527 whole entry) above

## CCCN(CCC)S(=O)(=O)c1ccc(C(=O)O)cc1 [Probenecid]
MRP transporters [1]
  pIC50: 3.10 to 3.30
MRP transporters [2]
  pIC50: 3.70 to 4.00
Human fibroblasts
  pIC50: 3.70
MRP4; read-out: IC50, 9-(2-phosphonomethoxyethyl)adenine (PMEA) transport by MRP4, substrate PMEA
  pIC50: 2.64
MRP4; read-out: IC50, MRP4 mediated export of methotrexate, substrate methotrexate
  pIC50: ~3.52
MRP4; read-out: published inhibitory concentrations IC50 or Ki, MRP4
  pIC50: 3.52
Hyaluronan synthase
  pIC50: 3.70
Hyaluronan transport
  inhibition of hyaluronan transport (words): inhibited hyaluronan transport
MRP5; at a concentration of 50 μM
  inhibition of MRP5 mediated transport of cGMP: 68%
MRP5; substrate PMEA, read-out: IC50, PMEA transport by MRP5
  pIC50: 3.70
MRP5; substrate fluorescein diacetate
  concentration inhibiting export of fluorescein diacetate by MRP5: 1 mM
MRP1
  pIC50: 3.70 to 4.00
